Assay results: patent publication US20150125915A1, “Method for Producing Lactic Acid” (Kao Corporation, priority 2012, published 2015)

Experiments:
[1] = tested on: Rhizopus oryzae JCM14625 strain (=NBRC 5384); experiment: Evaluation of ability to produce lactic acid-3 (surfactant concentration in the spore germination medium); format: cell-based; details: no surfactant = 100
Method: (1) 200 mL of a PDB medium non-supplemented or supplemented with 0.01, 0.05, 0.25, 0.50, 1.0, 1.5, or 2.5% (w/v) (final concentration) of sorbitan monolaurate (Rheodol(R) SP-L10, manufactured by Kao Corp.) was applied to a 500-mL baffled Erlenmeyer flask (manufactured by Asahi Glass Co., Ltd.). The Rhizopus oryzae spore suspension prepared in Production Example 1 was inoculated thereto at a dose of 1×10^3 spores/mL of the medium and then cultured at 27° C. for 3 days with stirring at 110 rpm.
(2) The cultures were filtered through a filter support and a nylon net filter of 180 μm mesh size (manufactured by EMD Millipore) sterilized in advance to recover fungus bodies onto the filter. From 2.0 to 3.0 g of the recovered fungus bodies was inoculated to 100 mL of an inorganic culture medium (composition: 10% glucose, 0.1% ammonium sulfate, 0.06% potassium dihydrogen phosphate, 0.025% magnesium sulfate heptahydrate, 0.009% zinc sulfate heptahydrate, and 5.0% calcium carbonate; all the concentrations mean % (w/v)) applied to a 500-mL Erlenmeyer flask, and then cultured at 27° C. for approximately 40 hours with stirring at 220 rpm.
(3) Control conditions in the absence of the surfactant involved culturing spores with stirring by the same procedures as in (1) using a PDB medium non-supplemented with the surfactant and then inoculating from 4 to 8 mL of the PDB seed culture medium to 100 mL of the inorganic culture medium by the same procedures as in (2), followed by culture.
(4) Subsequently, the cultures thus obtained by culture in the inorganic culture medium were filtered through a filter support and a nylon net filter of 180 μm mesh size (manufactured by EMD Millipore) sterilized in advance to recover fungus bodies onto the filter. On this filter, the fungus bodies were further washed with from 50 to 200 mL of saline to obtain fungus bodies.
30 g of the prepared wet fungus bodies of the genus Rhizopus was inoculated to 100 mL of an inorganic culture medium for lactic acid production evaluation (composition: 12.5% glucose, 0.1% ammonium sulfate, 0.06% potassium dihydrogen phosphate, 0.025% magnesium sulfate heptahydrate, 0.009% zinc sulfate heptahydrate, and 6.25% calcium carbonate; all the concentrations mean % (w/v)) and then cultured at 33.5° C. with stirring at 170 rpm. The fungus body-free supernatant of the culture medium was recovered every 1 hour from 30 minutes after the fungus body inoculation. Glucose and lactic acid were quantified by the procedures described later in Reference Example 1. A relative value of the production rate of lactic acid was determined on the basis of the calculation method described in Reference Example 2.
The concentration of lactic acid (unit: g of lactic acid/L of medium) in the supernatant sample of each culture medium was measured according to Reference Example 1 and divided by a time (unit: hr) required for change in lactic acid concentration to calculate the production rate of lactic acid per unit time (unit: g of lactic acid/L/hr). In addition, a relative value to the production rate of lactic acid under control conditions in each Production Example was determined.

[2] = tested on: Rhizopus oryzae JCM14625 strain (=NBRC 5384); experiment: LDH activity evaluation-1: mycelia prepared from spores in surfactant-supplemented PDB medium, LDH activity of fungus body extract; format: cell-based
Method: A loopful of a cryopreserved spore suspension sample (−80° C.) of a Rhizopus oryzae JCM14625 strain (=NBRC 5384) obtained from a culture collection Riken BioResource Center (BRC) was inoculated to a PDA medium (Difco Potato Dextrose Agar, manufactured by Becton, Dickinson and Company) and then statically cultured at 30° C. for from 7 to 10 days. After visual confirmation of hyphal growth and blackening at the ends of hyphae associated with sporulation, from 30 to 40 mL of saline was added thereto. Spores, together with hyphae, were collected into a 50-mL centrifugal tube with a lid (manufactured by Greiner bio-one) using a platinum loop and then vigorously mixed in the tube. The spore suspension thus mixed was filtered through 3GP100 cylindrical funnel-shaped glass filter (manufactured by Shibata Scientific Technology Ltd.). The resulting filtrate was used as a spore solution. The number of spores in the spore solution was measured using a hemocytometer (D=1/50 mm· 1/400 mm^2) after appropriate dilution with saline.
80 mL of a PDB medium non-supplemented or supplemented with 0.5% (w/v) (final concentration) of each surfactant described below was applied to a 200-mL baffled Erlenmeyer flask (manufactured by Asahi Glass Co., Ltd.). The Rhizopus oryzae spore suspension prepared in Production Example 1 was inoculated thereto at a dose of 1×10^3 spores/mL of the medium and then cultured at 27° C. for 3 days with stirring at 170 rpm. Since mycelia would remain on the filter, the cultures were filtered through a stainless sieve of 250 μm in mesh size (manufactured by AS ONE Corp.) sterilized in advance to recover fungus bodies onto the filter.
From3.0 to 4.0 g (wet weight) of the recovered fungus bodies was inoculated to 100 mL of an inorganic culture medium (composition: 10% glucose, 0.1% ammonium sulfate, 0.06% potassium dihydrogen phosphate, 0.025% magnesium sulfate heptahydrate, 0.009% zinc sulfate heptahydrate, and 5.0% calcium carbonate; all the concentrations mean % (w/v)) applied to a 500-mL Erlenmeyer flask, and then cultured at 27° C. for approximately 40 hours with stirring at 220 rpm. Subsequently, the cultures thus obtained by culture in the inorganic culture medium were filtered using a stainless screen filter holder (manufactured by EMD Millipore) sterilized in advance to recover fungus bodies onto the filter. On this filter holder, the fungus bodies were further washed with 100 mL of saline. The saline used in washing was removed by suction filtration. The obtained fungus bodies were used in the following LDH activity evaluation and evaluation of the ability to fermentatively produce lactic acid.
6.0 g of the wet fungus bodies of the genus Rhizopus obtained in Production Example 3 was inoculated to 40 mL of an inorganic culture medium for lactic acid production evaluation (composition: 8.0% glucose, 0.1% ammonium sulfate, 0.06% potassium dihydrogen phosphate, 0.025% magnesium sulfate heptahydrate, 0.009% zinc sulfate heptahydrate, and 5.0% calcium carbonate; all the concentrations mean % (w/v)) applied to a 200-mL Erlenmeyer flask, and then cultured at 35° C. with stirring at 170 rpm. After 4.5-hour culture of the fungus bodies of the genus Rhizopus with stirring, the fungus bodies were filtered using a stainless screen filter holder (manufactured by EMD Millipore) sterilized in advance to recover fungus bodies onto the filter. On this filter holder, the fungus bodies were further washed with 100 mL of saline. The saline used in washing was removed by suction filtration. 0.3 g of the obtained fungus bodies was recovered into a 3-mL disruption tube (manufactured by Yasui Kikai Corp.). Metal cone for 3 mL (manufactured by Yasui Kikai Corp.) was added to the tube, which was then capped and then frozen in liquid nitrogen. The frozen 3-mL disruption tube was applied to Multi-Beads Shocker (manufactured by Yasui Kikai Corp.). The fungus bodies were disrupted at 1700 rpm for 10 seconds.

With Sorbitan monolaurate the “Production rate of lactic acid (relative value)” value ([1]; 0.01% w/v in germination medium) was 119 relative value, the “Production rate of lactic acid (relative value)” value ([1]; 0.05% w/v in germination medium) was 133 relative value and the “Production rate of lactic acid (relative value)” value ([1]; 0.25% w/v in germination medium) was 116 relative value. For the same substance, the “Production rate of lactic acid (relative value)” value ([1]; 0.50% w/v in germination medium) was 138 relative value, the “Production rate of lactic acid (relative value)” value ([1]; 1.00% w/v in germination medium) was 140 relative value and the “Production rate of lactic acid (relative value)” value ([1]; 1.50% w/v in germination medium) was 117 relative value. The “Production rate of lactic acid (relative value)” value ([1]; 2.50% w/v in germination medium) was 98 relative value, the “LDH activity compared with control fungus bodies (in words)” value ([2]; 0.5% (w/v) surfactant at spore germination, versus medium non-supplemented with the surfactant) was “higher LDH activity” and the “LDH activity (relative value)” value ([2]; 0.5% (w/v) surfactant in PDB medium at spore germination, LDH activity in the absence of the surfactant = 100) was 267 relative value.
